Calls of active or inactive are those of the source. No cut-off for these calls is given here.
Tests used:
Mus musculus = experiment: Anti-inflammatory activity in C57BL/6 mouse assessed as inhibition of serum keratinocyte chemoattractant level pretreated orally with compound for 15 mins followed by C12-iE-DAP administration measured after 2 hrs by ELISA; type: functional, organism-based; details: dose 12.5-50 mg/kg, route po, time 135.0 min
[1] = biological target: T1, Nucleotide-binding oligomerization domain-containing protein 1 (Mus musculus, UniProt Q8BHB0); experiment: Antagonist activity at mouse NOD1 expressed in HEK293 cells assessed as decrease in NF-kappaB activation; type: cell-based
T1 sequence (Q8BHB0 whole entry): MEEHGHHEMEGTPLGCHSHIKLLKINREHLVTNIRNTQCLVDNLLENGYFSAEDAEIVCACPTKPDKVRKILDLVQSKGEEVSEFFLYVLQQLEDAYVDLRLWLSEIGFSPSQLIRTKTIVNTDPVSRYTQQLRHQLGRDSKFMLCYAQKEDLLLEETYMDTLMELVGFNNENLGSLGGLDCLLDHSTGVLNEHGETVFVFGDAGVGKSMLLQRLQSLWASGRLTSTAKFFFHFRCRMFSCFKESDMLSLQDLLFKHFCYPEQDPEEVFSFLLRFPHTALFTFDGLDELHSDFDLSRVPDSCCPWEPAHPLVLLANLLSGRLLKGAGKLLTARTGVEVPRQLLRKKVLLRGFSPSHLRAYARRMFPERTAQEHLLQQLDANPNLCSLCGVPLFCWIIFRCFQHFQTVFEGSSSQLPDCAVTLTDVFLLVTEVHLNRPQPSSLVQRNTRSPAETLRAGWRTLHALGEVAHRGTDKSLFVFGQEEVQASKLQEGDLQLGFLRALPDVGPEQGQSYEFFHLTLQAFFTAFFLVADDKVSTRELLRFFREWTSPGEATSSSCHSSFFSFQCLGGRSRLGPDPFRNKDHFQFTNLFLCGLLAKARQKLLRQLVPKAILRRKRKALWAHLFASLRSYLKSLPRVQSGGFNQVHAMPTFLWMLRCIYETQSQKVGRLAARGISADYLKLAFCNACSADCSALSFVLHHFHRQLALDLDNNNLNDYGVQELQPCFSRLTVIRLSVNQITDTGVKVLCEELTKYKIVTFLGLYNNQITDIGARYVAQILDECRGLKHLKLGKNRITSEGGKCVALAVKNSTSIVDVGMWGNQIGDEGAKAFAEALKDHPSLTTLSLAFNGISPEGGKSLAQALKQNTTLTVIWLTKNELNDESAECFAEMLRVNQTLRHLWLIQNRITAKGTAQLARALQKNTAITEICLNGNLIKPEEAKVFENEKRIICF

[2] = biological target: T2, Nucleotide-binding oligomerization domain-containing protein 1 (Homo sapiens) (UniProt Q9Y239); experiment: Antagonist activity at NOD1 in human THP-1 cells assessed as decrease in phosphorylated JNK level at 0.1 to 1 uM incubated for 1 hr followed by C12-iE-DAP stimulation for 30 mins by Western blot analysis; type: cell-based; details: filed as antagonist, dose 0.1-1 µM, time 1.5 hrs
T2 sequence (whole entry): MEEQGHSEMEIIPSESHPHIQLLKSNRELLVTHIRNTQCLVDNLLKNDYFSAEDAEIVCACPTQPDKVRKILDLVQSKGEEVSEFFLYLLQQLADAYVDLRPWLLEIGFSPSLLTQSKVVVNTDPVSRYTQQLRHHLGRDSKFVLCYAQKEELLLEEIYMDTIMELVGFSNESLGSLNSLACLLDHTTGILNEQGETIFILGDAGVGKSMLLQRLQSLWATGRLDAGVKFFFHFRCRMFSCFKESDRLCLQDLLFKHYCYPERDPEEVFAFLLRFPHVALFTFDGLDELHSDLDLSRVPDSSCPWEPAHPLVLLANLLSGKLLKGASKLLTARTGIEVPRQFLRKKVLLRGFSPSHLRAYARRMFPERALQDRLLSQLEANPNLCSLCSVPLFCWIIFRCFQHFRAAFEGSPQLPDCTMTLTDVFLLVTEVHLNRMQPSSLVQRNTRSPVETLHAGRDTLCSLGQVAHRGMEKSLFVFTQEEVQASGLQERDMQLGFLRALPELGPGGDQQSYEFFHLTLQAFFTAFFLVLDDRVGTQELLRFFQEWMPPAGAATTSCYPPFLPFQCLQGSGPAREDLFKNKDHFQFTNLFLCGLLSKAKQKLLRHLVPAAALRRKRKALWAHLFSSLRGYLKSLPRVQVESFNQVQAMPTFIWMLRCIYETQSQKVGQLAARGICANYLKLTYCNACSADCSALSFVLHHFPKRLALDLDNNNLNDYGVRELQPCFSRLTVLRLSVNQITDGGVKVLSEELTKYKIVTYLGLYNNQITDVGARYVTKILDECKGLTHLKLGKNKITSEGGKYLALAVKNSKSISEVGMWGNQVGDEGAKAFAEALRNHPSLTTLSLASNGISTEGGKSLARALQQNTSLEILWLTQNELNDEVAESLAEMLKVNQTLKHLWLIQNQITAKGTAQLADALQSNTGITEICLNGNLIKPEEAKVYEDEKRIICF

[3] = Cytotoxicity against HEK-Blue mNOD1 cells by SRB assay; type: toxicity, cell-based; details: human
[4] = biological target: T3, Nucleotide-binding oligomerization domain-containing protein 1 (Mus musculus) (UniProt Q8BHB0); experiment: Antagonist activity at mouse NOD1 expressed in HEK-Blue cells assessed as decrease in SEAP secretion incubated for 3 hrs followed by C12-iE-DAP stimulation for 20 hrs by spectrophotometry; type: cell-based; details: HEK-Blue mNOD1, filed as antagonist, time 23.0 hrs
T3 sequence (whole entry): T1 sequence (Q8BHB0 whole entry)

[5] = biological target: T2, Nucleotide-binding oligomerization domain-containing protein 1 (Homo sapiens); experiment: Thermal stabilization of NOD1 (unknown origin) transfected in HEK293 cells at 0.1 to 5 uM incubated for 1 hr heated at higher temperature by CETSA; type: cell-based; details: dose 0.1-5 µM
[6] = Cytotoxicity against HEK-Blue hNOD1 cells by SRB assay; type: toxicity, cell-based; details: human
THP-1 = experiment: Anti-inflammatory activity in human THP-1 cells assessed as decrease in IL-6 mRNA level at 5 uM pretreated for 1 hr followed by infection with Helicobacter pylori for 2 hrs by RT-qPCR analysis relative to control; type: functional; parameters: scale not given: the % may be the effect or the level left; details: time 3 hrs
AGS [7] = experiment: Anti-inflammatory activity in human AGS cells assessed as decrease in CXCL8 mRNA level at 1 to 5 uM pretreated for 1 hr followed by infection with Helicobacter pylori for 2 hrs by RT-qPCR analysis; type: functional, cell-based; details: dose 1-5 µM, time 3.0 hrs
[8] = Half life in C57BL/6 mouse at 20 mg/kg, po by LC-MS/MS analysis; type: ADME, organism-based; details: in vivo
AGS [9] = experiment: Anti-inflammatory activity in human AGS cells assessed as decrease in CXCL8 mRNA level at 1 uM pretreated for 1 hr followed by C12-iE-DAP stimulation for 2 hrs by RT-qPCR analysis; type: functional, cell-based; details: time 3.0 hrs
[10] = biological target: T3, Nucleotide-binding oligomerization domain-containing protein 1 (Mus musculus); experiment: Antagonist activity at NOD1 in mouse BMDM cells assessed as decrease in phosphorylated p38 level at 0.1 to 1 uM incubated for 1 hr followed by C12-iE-DAP stimulation for 30 mins by Western blot analysis; type: cell-based; details: filed as antagonist, dose 0.1-1 µM, time 1.5 hrs

IC50 [1]: 32 nM | inhibition [2]: Active | Activity [4]: Dose-dependent-effect | Activity [5]: Active | half-life [8]: 189 min | inhibition [10]: Active
Structure (SMILES): CS(=O)(=O)c1ccc2nc(Cl)n(-c3ccc(Cl)c(NS(=O)(=O)c4c(F)cccc4F)c3)c(=O)c2c1
inhibition (Mus musculus): Dose-dependent-effect | Activity [3]: Non-toxic | Activity [6]: Non-toxic | Activity (THP-1): 100% | Activity (AGS [7]): Active | Activity (AGS [9]): Active

From ChEMBL document CHEMBL6074678, “Selectively Antagonizing the NOD1-Mediated Inflammatory Signaling Pathway Mitigates the Gastric Inflammation Induced by Helicobacter pylori Infection” (J Med Chem, 2024)
